One series relates to Jurkat cells. As to the kind of experiment: DNA fragmentation (DNA laddering) in Jurkat cells. The series is classed as cell-based. To be noted: LAC 6 μM. On the procedure: Tonsillar T cells (A, B, and D) and Jurkat cells (C and E) were treated with LAC (10 μM for T cells and 6 μM for Jurkat cells). LAC was added at the beginning of the culture or 40 h after T cell activation as indicated. The cells were harvested at the time points as shown. They were evaluated for their viability with trypan blue exclusion (A, B, and C), and for their mode of cell death according to DNA fragmentation (D and E).
Jurkat cells were treated with LAC (6 μM) in the absence or presence of different concentrations of zVAD.fms (0.4 μM to 33.3 μM) for 6 h. The cells were harvested and their DNA was analyzed by a DNA fragmentation assay according to DNA laddering.
We next employed DNA laddering to study the mode of cell death caused by LAC, and the result of this experiment also reflected the degree of cell death after different treatments. […] After 24 h of LAC treatment, the ladders became less discrete, and this probably reflected further DNA breakdown.
The assay was performed according to a protocol described by Liu et al (Liu et al., 1997, Cell. 89:175) with some modifications. Briefly, 2-6 million cells were re-suspended in 50 μl PBS followed by 300 μl lysis buffer (100 mM Tris-HCl, pH 8.0, 5 mM EDTA, 0.2 M NaCl. 0.2% w/v SDS, and 0.2 mg/ml proteinase K). After overnight incubation at 37° C., 350 μl of 3M NaCl was added to the mixture and cell debris was removed by centrifugation at 13000 g for 20 min at room temperature. DNA in the supernatant was precipitated with an equal volume of 100% ethanol. The pellet was washed with cold 70% ethanol and then dissolved in 20 μl of TE containing 0.2 mg/ml RNase A. After incubation at 37° C. for 2 h, the DNA was resolved on 2% agarose gel and visualized with ethidium bromide staining.

For the next series, the system named is Cyclin E. As to the kind of experiment: Immunoblotting of Cyclin E level in T cells. It is filed as cell-based, human. On the procedure:
Tonsillar T cells were activated with PHA (2 μg/ml) for a period as indicated in each graph. LAC (10 μM) was added once at 0 h. The cells were harvested at 16 h, 24 h, or 40 h as indicated. An equal amount of lysate protein ([…]) was precipitated with rabbit anti-CDK4, anti-CDK2 or anti-Cyclin E antisera (2.5 μg Ab/sample). The immune complexes were assayed for their kinase activities using histone H1 as a substrate. (A) CDK4 kinase activity. (B) CDK2 kinase activity. (C) Cyclin E-associated CDK activity. The membrane in (C) was subsequently hybridized with anti-Cyclin E (1 μg/ml) followed by ^125I-protein A for the evaluation of the protein level of Cyclin E.
Tonsillar T cells were stimulated with PHA (2 μg/ml) for 40 h in the presence of hydroxyurea (1 mM), and these cells were blocked at the G1/S boundary (G1 block). The synchronization was released by washing out hydroxyurea, and the cells were recultured in medium containing 2 μg/ml PHA in the absence or presence of LAC ([…], added once at the time of the release). The cells were harvested at 6 h and 22 h post the G1/S block. […]
Immunoblotting was employed to evaluate the levels of Cyclin E, cyclin A, p21^Cip1 and p27^Kip1. […] The cleared lysates were quantitated for protein concentrations. […] The signals on the membrane were detected by [^125I]-protein A followed by autoradiography.
On the technique in general: Immunoblotting shows a protein as a band on a membrane.

For the next series, the system named is Bax, Bak and Bad. As to the kind of experiment: Immunoblotting of Bax, Bak and Bad in Jurkat cells. As to conditions: lactacystin 6 μM. It is filed as cell-based. On the procedure: Jurkat cells were treated with lactacystin (6 μM) for 5 h (lanes 2 and 4 of panel A), 4 h (lane 2 of panel B) or 7 h (lane 3 of panel B), lane 1 in panels A and B is untreated control samples. The cells were separated into mitochondrial (mito in panel A and mitochondria in panel B) and cytosolic (cytosol in panel A) fractions, and the lysate of these two fractions analyzed by immunoblotting using goat anti-Bik, and rabbit anti-Bax, Bak and Bad Ab (all from Santa Cruz Biotech, Santa Cruz, Calif.) followed by enhanced chemiluminescence (ECL, kit from Amersham).

For series [1] the following is noted: aqueous solutions of high pH; cited from earlier work.
The subject of series [2] is calpain, cathepsin B, chymotrypsin, trypsin, and papain. To be noted: cited from earlier work.

The values below come from US20020049157A1, “Use of proteasome inhibitors for treating cancer, inflammation, autoimmune disease, graft rejection and septic shock” (priority 1998, published 2002).

Structures are written as SMILES.

Consider `CC(=O)N[C@@H](CSC(=O)[C@]1([C@@H](O)C(C)C)NC(=O)[C@H](C)[C@@H]1O)C(=O)O` [LAC, lactacystin], for which the “onset of DNA fragmentation” value with Jurkat cells is listed as “detected as early as 6 h”. Besides, the DNA fragmentation result in the series on Jurkat cells (after 16 h) is “more prominent”. For the same compound, the “decline of Cyclin E level after the G1/S boundary” value with Cyclin E (PHA plus hydroxyurea block, released, LAC added at release, 6 h and 22 h) is listed as “decline was prevented”. Also, the “Cyclin E protein level” value in the series with Cyclin E (PHA-activated T cells, LAC added once at 0 h) was “increased”. Also, in the series with Bax, Bak and Bad, the “amounts of Bax, Bak and Bad” value was “does not appear to have altered”. Further, the “stability in aqueous solutions” value in series [1] is “unstable”. Also, in series [2], the “effect on other proteases” value is listed as “does not affect”.
